Measurements: ChEMBL document CHEMBL3507680, “University of Dundee, Gates Library screen for HepG2 cell viability”

Assay: Human HepG2 cell viability assay in 384 well format
Format: toxicity, cell-based
Design: dose 125 nL, time 70.5 hour; cytotoxicity at 70.5 h: concentration not given beside the values
Settings: HepG2 cells, read-out: Inhibition

| SMILES | cytotoxicity at 70.5 h [%] |
| --- | --- |
| O=C(C1CCOCC1)N1CCc2ncnc(-c3ccc(F)cc3)c2CC1 | -11.3 |
| Cc1nc(CN(C)C2CCN(CCc3ccccn3)C2)no1 (stereo not drawn) | 24.5 |
| CCCc1cc(C(=O)N(C)Cc2cnc3ccccc3n2)n(C)n1 | -4.51 |
| Cn1cc(C2CCCN2C(=O)CCCc2cccs2)cn1 (stereo not drawn) | -12.4 |
| Cc1cc(N2CCC(O)(CN(C)C)C2)c2cc3c(cc2n1)OCO3 (stereo not drawn) | 44.8 |
| COCc1cc(N(C)Cc2ccccn2)nc(C(C)(C)C)n1 | -10.1 |
| CCN1CCC(CC(=O)N2CCCCC2CCn2cccn2)CC1 (stereo not drawn) | -11.1 |
| Cn1ccnc1CN1CCC2(COCCN(Cc3ccsc3)C2)C1 (stereo not drawn) | -11.4 |
| CC(C)C(=O)NCc1ccnc(Oc2ccc(F)cc2)c1 | -5.04 |
| O=C([C@@H]1CCO[C@@H]2CCN(Cc3ccc(F)cc3)C[C@H]21)N1CCCCO1 | -24.4 |
| NC(=O)c1ccc(NC2CCOC3(CCCC3)C2)nn1 (stereo not drawn) | 17.2 |
| CCOC1CCN(CC(=O)Nc2oc(C)c3c(C)n[nH]c(=O)c23)CC1 | -4.42 |
| O=C(COc1ccccc1F)NCCC(O)c1ccco1 (stereo not drawn) | -3.87 |
| CN(Cc1cc2cc(F)ccc2[nH]1)C(=O)C1CC(=O)N(C(C)(C)C)C1 (stereo not drawn) | -1.21 |
| Cn1cc(C(=O)Nc2ccc3c(c2)CN(C(=O)c2ccco2)CC3)nn1 | -4.02 |
| COCCN1CCn2cc(CN(C)Cc3ccco3)nc2C1 | -7.59 |
| O=C1CO[C@@H]2CN(C3CCOCC3)C[C@H]2N1Cc1ccncc1 | 4.06 |
| CCSc1ccccc1C(=O)N1CC2(COC(C)(C)OC2)C1 | -4.65 |
| Cc1ccc(-c2nc(CN3CCOC(Cn4cncn4)C3)cs2)o1 (stereo not drawn) | -6.85 |
| CC(=O)NCCCSC1CCCN(c2ccccc2F)C1=O (stereo not drawn) | -6.35 |
| O=C(NCC1CCOCC1)[C@H]1C[C@@H]2CCN(Cc3ccncc3)C[C@@H]2O1 | -1.08 |
| CCOc1cc(F)ccc1NC(=O)NCC(c1cnn(C)c1)N(C)C (stereo not drawn) | -0.683 |
| NC(=O)c1csc(N2C[C@@H](CN3CCOCC3)[C@@H](CO)C2)n1 | -2.9 |

| SMILES | cytotoxicity at 70.5 h [%] |
| --- | --- |
| O=C(COc1cccc2c1CCC2=O)NCCOc1ccccc1 | 15.4 |
| CCNC(=O)NC1CN(Cc2ccccc2N(C)C)C[C@@H]1OC (stereo partly drawn) | 5.63 |
| c1cncc(CN2CCO[C@H]3[C@H](OCCN4CCCC4)CC[C@@H]32)c1 | -8.38 |
| O=C(c1ccco1)N1CC[C@@H]2O[C@H](COCC3CCOCC3)CC[C@@H]21 | 4.34 |
| CC(C)CCN1CCC2(CNS(=O)(=O)c3cccnc3O2)C1 (stereo not drawn) | 26.8 |
| CC(C(=O)Nc1ccc(N2CCOCC2)nc1)n1cncn1 (stereo not drawn) | 23.7 |
| CCOCCCn1c(NC(=O)c2ccnc(C)n2)nc2ccccc21 | 25.9 |
| CN(CC(C)(C)C)S(=O)(=O)c1ccc(C(F)(F)F)nc1 | -25.1 |
| Cn1cccc1C(=O)N1CCCC1c1ccc(CN2CCOCC2)cn1 (stereo not drawn) | -1.35 |
| CCc1ccc(C(=O)N2CCCC2c2nnc3n2CCCCC3)o1 (stereo not drawn) | 3.58 |
| Cc1ccc(N2CC[C@@H](NC(=O)c3cnccn3)[C@H](O)C2)nn1 | -7.78 |
| CN(Cc1cccnc1)C1CC2(CCN(c3ccccn3)CC2)C1 | -8.74 |
| Cc1cc(C)cc(N(CCC#N)C(=O)CN2CCCC2c2cccs2)c1 (stereo not drawn) | 25.9 |
| Cc1nc(CN2CCC3(CCN(C(=O)c4ccoc4C)CC3)C2)cs1 | -6.97 |
| CCN1CCN(c2ccc(CNC(=O)c3ccccc3F)cn2)CC1 | -0.777 |
| O=C1CC2(CCCCN2C(=O)c2ccco2)CN1c1cccnc1 (stereo not drawn) | 15.4 |
| CC(C)OCCN1CCN(C(=O)c2cccc(CC#N)c2)CC1 | -12 |
| NC(=O)CC1CCN(C(=O)NCC2(c3ccccc3F)CC2)CC1 | 0.188 |
| CCCc1ncc(CNC2(c3ccc(Cl)cc3)CCC2)cn1 | -4.55 |
| Cc1cnc(CN2CCN(C(C)c3nc(C(C)C)no3)CC2)cn1 (stereo not drawn) | -6.56 |
| Cc1nc(C2CCCN2C(=O)CC2CCCC2)ncc1C(N)=O (stereo not drawn) | -4.71 |
| Cn1ccc(-c2cc(C(=O)N3CCC(O)CC3)c3ccccn23)n1 | 29.8 |
| O=C(N[C@@H]1CN(Cc2ccc3[nH]ccc3c2)C[C@H]1O)c1cscn1 | 19.9 |

| SMILES | cytotoxicity at 70.5 h [%] |
| --- | --- |
| CN(C(=O)c1ccon1)[C@@H]1CCC[C@@H](Oc2ccccc2)[C@@H]1O | -1.37 |
| CC(C)(O)CN1CCN(C(=O)c2sccc2C2CC2)CC1 | -6.03 |
| CC(=O)c1ccc(OCC(C)O)cc1O (stereo not drawn) | 5.87 |
| COc1ccc(N2Cc3nc(=O)n(C(C)C)n3C2=O)cc1 | -15.6 |
| OCC1CCCN1c1cc(NCc2cc3ccccc3o2)ncn1 (stereo not drawn) | -18.3 |
| CSc1cccc(CNC(=O)[C@H]2CNC[C@H](C(=O)N3CCOCC3)C2)c1 | -2.2 |
| CCN(CC)c1ccc2ccc(C(=O)N(C)C)cn12 | 8.29 |
| CC(C)C(c1cccnc1)N(C)C(=O)Cc1ccc(O)cc1 (stereo not drawn) | 0.393 |
| CC(C)(O)CN1CCN(C(=O)COCC(F)(F)F)CC1 | 15.1 |
| Cc1ccc(C(=O)N2CCCC(NC(=O)C(C)C)C2)c(O)c1 (stereo not drawn) | -3.17 |
| O=C1NCCCCC1NCc1csc(-c2ccccn2)n1 (stereo not drawn) | -12.2 |
| OCCN(Cc1ccncc1)CC1(c2ccc(Cl)cc2)CC1 | -4.99 |
| O=C1NCCN(CC2CC2)C12CCN(Cc1ccco1)CC2 | 12.8 |
| Cn1c(N2CCOCC2)nc2cc(C(=O)N[C@@H]3CC[C@@H](N)C3)ccc21 | -5.03 |
| CN(C)c1cc(CNC(=O)c2ccc(=O)[nH]n2)ccn1 | 1.83 |
| c1cn(Cc2ccc(N3CCCN(C4CCCC4)CC3)nc2)cn1 | 38.7 |
| COC(=O)c1ncccc1N1CCCC1 | -2.82 |
| COCc1ncn2c1CN(C(=O)c1cccc3cccnc13)CC2 | 19.6 |
| Cc1nccn1-c1cc(CNC(=O)CCC2CCCO2)ccn1 (stereo not drawn) | 43.5 |
| O=C(COCc1ccccc1)NCc1ccc(O)c(F)c1 | -0.734 |
| O=C(NC[C@@]1(COc2cnccn2)C[C@@H](O)[C@@H](O)C1)C1CCOCC1 | -1.95 |
| N#Cc1cc2n(n1)CCN(C(=O)CCc1c[nH]c3ccccc13)C2 | -10.2 |
| O=C(O)c1cc(/C=C/c2ccccc2)ncn1 | -5.54 |

| SMILES | cytotoxicity at 70.5 h [%] |
| --- | --- |
| CC(C)(C)CNS(=O)(=O)C1CS(=O)(=O)c2ccccc21 (stereo not drawn) | 16.6 |
| CC(O)CN(C)S(=O)(=O)c1ccc(C#N)cc1F (stereo not drawn) | -2.23 |
| N#Cc1cccc(SCCS(N)(=O)=O)c1 | -6.9 |
| Cc1ccoc1C(=O)N1Cc2c(CN3CCCCC3)nn(C)c2C1 | 0.575 |
| CN1CCCC2(CCN(c3cc(C(F)(F)F)nc(N(C)C)n3)C2)C1=O (stereo not drawn) | 10.3 |
| O=C(CCc1cc2n(n1)CCN(Cc1ncc[nH]1)C2)N1CCCC1 | 2.55 |
| CSCCCN1CCC[C@]2(C(=O)O)CN(c3cnccn3)CC[C@@H]12 | 26.4 |
| Cc1nc(C)c(C(=O)NCCNc2cc(N3CCCC3)ncn2)s1 | 9.32 |
| N#CCCN(Cc1cccnc1)C(=O)c1ccc(OCC2CC2)cc1 | -4.18 |
| CN(CC(=O)NS(=O)(=O)c1ccc(F)cc1)Cc1ccccc1 | -3.97 |
| CC(=O)N1N=C(c2ccncc2)OC1C(=O)N(C)CCc1ccccc1 (stereo not drawn) | 4.98 |
| NCCn1cc(C(=O)N2CCCCCC2c2ccco2)nn1 (stereo not drawn) | -8.2 |
| CNC(=O)c1cnc(/C=C/c2cc(OC)c(O)c(OC)c2)s1 | -12.6 |
| CCOC(=O)c1c(NC(=O)C2CCN(C(C)=O)CC2)sc(C)c1CC | -6.22 |
| CCOCCC(=O)N1Cc2cnc(-c3ccccc3)nc2C1 | -12.5 |
| O=C(Cc1ccccn1)N1CCC2(CC1)CN(CC1CC1)C(=O)CO2 | -5.52 |
| COCCN1CCN(Cc2cnc(C(C)C)nc2)CC1 | 16.4 |
| CC(C)C(C)NC(=O)Nc1ccc(CS(C)(=O)=O)cc1 (stereo not drawn) | -8.12 |
| Cc1ccc(C(=O)NCCCn2cccn2)c(=O)[nH]1 | -0.293 |
| CSCc1cc(C(=O)NC2(C#N)CC2)ccc1F | -0.691 |
| CCOCC1CN(C(=O)c2cnoc2C)Cc2cn(CC3CC3)nc21 (stereo not drawn) | -8.9 |
| Cc1cccc(CC(=O)Nc2cnn(C3CCOC3)c2)c1 (stereo not drawn) | -13.6 |
| CCNC(=O)[C@@H]1C[C@@H](NC(=O)Cc2cc(C)no2)CN1Cc1ccsc1 | -12.7 |

| SMILES | cytotoxicity at 70.5 h [%] |
| --- | --- |
| CC(C)C(NC(=O)NCCNc1ccccn1)c1cccs1 (stereo not drawn) | -8.85 |
| CC(C)C(NC(=O)c1ccc(Cl)cc1Cl)C(=O)Nc1cnn(C)c1 (stereo not drawn) | 4.14 |
| Cc1cc2nc(C(C)C)cc(NCCc3ccncc3)n2n1 | -13.2 |
| CCN1C(=O)C2(CCOCC2)c2cc(NC(=O)COC)ccc21 | 14.9 |
| O=C(O)CN1CCC(c2ccccc2)C1 (stereo not drawn) | -13.6 |
| CN1CCN(C)C2(CCN(Cc3ccsc3)CC2)C1=O | 16.8 |
| CCc1cnc(N2C[C@H]3C[C@H](C(=O)N4CCOCC4)[C@@H](C2)O3)nc1 | -6.74 |
| O=C1CC(c2ccc3c(c2)OCO3)c2cn[nH]c2N1 (stereo not drawn) | -11.7 |
| Cc1ccc(CN(C(=O)C(C)NC(N)=O)C2CC2)cc1C (stereo not drawn) | 25.3 |
| CCOC1CCN(C(=O)c2ccc(-n3ncc(C#N)c3N)cc2)CC1 | -0.409 |
| CCn1ncc2c1C(COC)CN(Cc1ccsc1)C2 (stereo not drawn) | 1.82 |
| O=C(Nc1ccccc1)C1CN(Cc2cccs2)CC12CCOCC2 (stereo not drawn) | -6.1 |
| CC(C)(C)N1CC(C(=O)N2CCN(CCn3cccc3)CC2)CC1=O (stereo not drawn) | -2.66 |
| Cc1nc(-c2nnc[nH]2)sc1C(=O)N1CCCC(C(F)(F)F)C1 (stereo not drawn) | -4.51 |
| Cc1csc2cc(C(=O)NC3CCCC3)cnc12 | 3.45 |
| O=C(CSc1ccccc1Cl)NS(=O)(=O)c1ccc2c(c1)OCCO2 | -4.84 |
| CC(=O)c1cc(CC(=O)N2CCN(S(=O)(=O)c3ccccc3)CC2)cs1 | -1.54 |
| Cc1nnc(CN(Cc2cccc(Cl)c2)C(C)C)o1 | -16.1 |
| Cc1noc(CN(C)Cc2ccc3c(c2)OCO3)n1 | 12.4 |
| CCCNC(=O)CCNC(=O)N1CCc2c(F)ccc(F)c2C1 | 3.2 |
| COCCN1CCc2cc(C(=O)N(C)C)c(NCC3CC3)nc2CC1 | -4.26 |
